Reference: patent publication US12637461B2, “Compounds for the activation of AMPK” (PFIZER INC., priority 2022, dated 2026)

Target: T1, human AMPK α2β2γ3 (Homo sapiens, UniProt O43741+P54646+Q9UGI9)
T1 construct: expressed in transfected cells; host or cells: HEK293AD cells, MaxCyte bulk electroporation
Assay: Primary cellular assay: γ3 associated phospho-Thr172 AMPK detection (custom pAMPK Surefire AlphaLISA) in α2β2γ3 bulk transiently transfected HEK293 cells
Format: cell-based
Details: activation of human AMPK α2β2γ3 (γ3 pThr172 AMPK signal) in transiently transfected HEK293 cells, 20 minutes compound incubation; for Emax: 20 min, read-out: Assay GMean Asy. Max (%); for Emax / Assay GMean Asy. Max (%): geometric mean of the asymptotic max; for EC50: geometric mean EC50, read-out: Assay GMean EC50
Protocol: Primary Cellular Assay—γ3 Associated Phospho-Thr172 AMPK Detection in α2β2γ3 Bulk Transiently Transfected HEK293 Cells
The cellular potencies of the compounds were evaluated using a custom pAMPK Surefire AlphaLISA designed to assess γ3 associated phospho-Thr172 AMPK and modulation by small molecules in AMPK α2β2γ3 transiently transfected HEK293 cells.
A pAMPK Surefire AlphaLISA (PE-ASLU-PAMPK) assay available through Perkin Elmer was modified to selectively assess γ3 pThr172 AMPK content (as opposed to total pThr172 AMPK) by labeling a γ3 antibody with a CaptSure™ tag and substituting it for the total α1c/α2 AMPK labeled antibodies in the kit. In the modified assay, the overall abundance of γ3 AMPK is recognized by the CaptSure γ3 antibody and the phosphorylated AMPK is recognized by biotinylated pThr172 antibody. Subsequent reactivity with streptavitin donor beads and anti CaptSure conjugated acceptor beads brings the molecules into close proximity. Upon excitation at 680 nm, the donor bead converts ambient oxygen to a more excited singlet state which reacts with the acceptor bead and emits light at 520 to 620 nm. The intensity of the signal is proportional to the level of γ3 associated pThr172 AMPK phosphorylation.
In short, AMPK-α2+β2+γ3 MaxCyte bulk-transfected HEK293AD cells were thawed in growth media (DMEM High glucose+10% FBS) in a collagen-coated T150 flask and the cells were allowed to adhere and grow overnight in a 37° C. incubator. The following day, the cells were harvested and resuspended in plating medium (DMEM Low glucose+10% FBS) at a concentration of 100,000 cells per mL and 50 μL of this cell suspension was added to all wells of a 384-well plate using a Multidrop Combi. The cells were allowed to adhere and grow for 2 days in a 37° C. incubator. On assay day, compounds were diluted in 100% dimethyl sulfoxide (DMSO) in a 11 dose, half log dilution scheme and spotted in the cell plates at 1000× the final concentration. Compound incubations were performed in plating media for 20 minutes. Cells were washed with PBS, lysed and the signal was generated by subsequent additions of RB1 reagent from the kit, 1:1000 CaptSure γ3 labeled antibody in 1× immunoassay buffer, Anti-CaptSure acceptor beads and Streptavitin donor beads at final concentration of […]. The γ3 pThr172 AMPK signal was developed using EnVision™ multilabel reader (Perkin Elmer) using Alphascreen settings. The fluorescence emission was used to calculate the % effect relative to the HPE (30 μM) and ZPE (DMSO). EC50 curves were generated with the ActivityBase software using the XLfit model 205 to determine EC50 and Emax values.
For screening purposes, bulk AMPK-α2+β2+γ3 MaxCyte bulk transfection into HEK293AD cells were generated to support SAR screening as follows.
HEK293AD cells were seeded into 10 flasks at 2.7×10^7 cells per flask. The following day 12 mL of Trypl E dissociation reagent were added to each flask to lift the cells and the cells were then spun at 300×g for 5 minutes. Cells were washed once in MaxCyte EP buffer and then resuspended in MaxCyte EP buffer at 1×10^8 cells per mL. For transfection, 500×10^6 cells in 500 μl MaxCyte EP buffer were placed in a CL1.1 Processing Assembly (electroporation cell) with 1 mg/mL ([…]) of each of the plasmids pcDNA3.1(+)-human AMPK alpha 2, pcDNA3.1(+)-human AMPK beta 2 and pcDNA3.1(+)-human AMPK gamma 3 and the electroporation was carried out on the MaxCyte STX using the HEK293 electroporation protocol. Following electroporation, cells were transferred to a T175 flask containing growth medium (DMEM High glucose+10% FBS) and allowed to recover for 25 minutes, then the cells were resuspended to final volume of 900 mL and distributed into 6XT175 flasks and allowed to adhere and grow overnight in a 37° C. incubator. […]

T1 sequence (P54646 whole entry): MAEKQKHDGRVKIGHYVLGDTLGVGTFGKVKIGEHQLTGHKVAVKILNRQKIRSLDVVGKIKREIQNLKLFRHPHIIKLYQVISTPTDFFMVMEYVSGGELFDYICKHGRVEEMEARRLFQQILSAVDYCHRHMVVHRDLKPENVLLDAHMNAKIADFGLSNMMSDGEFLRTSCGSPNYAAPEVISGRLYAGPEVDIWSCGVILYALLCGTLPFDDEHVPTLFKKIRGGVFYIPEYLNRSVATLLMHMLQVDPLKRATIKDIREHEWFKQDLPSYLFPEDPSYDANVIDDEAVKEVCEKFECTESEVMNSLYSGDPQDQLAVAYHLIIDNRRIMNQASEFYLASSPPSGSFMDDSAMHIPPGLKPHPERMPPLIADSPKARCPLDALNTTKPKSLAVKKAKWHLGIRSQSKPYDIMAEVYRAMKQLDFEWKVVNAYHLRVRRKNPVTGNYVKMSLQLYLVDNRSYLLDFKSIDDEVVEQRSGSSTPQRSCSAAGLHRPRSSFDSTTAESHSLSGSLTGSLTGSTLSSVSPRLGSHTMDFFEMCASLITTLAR
T1 sequence (O43741 whole entry): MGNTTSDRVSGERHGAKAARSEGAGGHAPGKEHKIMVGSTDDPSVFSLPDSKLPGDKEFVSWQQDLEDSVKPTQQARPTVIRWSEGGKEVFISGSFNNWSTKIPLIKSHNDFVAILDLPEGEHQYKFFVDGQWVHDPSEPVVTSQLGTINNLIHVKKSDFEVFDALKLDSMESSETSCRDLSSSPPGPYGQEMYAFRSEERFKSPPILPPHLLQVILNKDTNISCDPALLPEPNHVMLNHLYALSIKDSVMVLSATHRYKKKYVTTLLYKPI
T1 sequence (Q9UGI9 whole entry): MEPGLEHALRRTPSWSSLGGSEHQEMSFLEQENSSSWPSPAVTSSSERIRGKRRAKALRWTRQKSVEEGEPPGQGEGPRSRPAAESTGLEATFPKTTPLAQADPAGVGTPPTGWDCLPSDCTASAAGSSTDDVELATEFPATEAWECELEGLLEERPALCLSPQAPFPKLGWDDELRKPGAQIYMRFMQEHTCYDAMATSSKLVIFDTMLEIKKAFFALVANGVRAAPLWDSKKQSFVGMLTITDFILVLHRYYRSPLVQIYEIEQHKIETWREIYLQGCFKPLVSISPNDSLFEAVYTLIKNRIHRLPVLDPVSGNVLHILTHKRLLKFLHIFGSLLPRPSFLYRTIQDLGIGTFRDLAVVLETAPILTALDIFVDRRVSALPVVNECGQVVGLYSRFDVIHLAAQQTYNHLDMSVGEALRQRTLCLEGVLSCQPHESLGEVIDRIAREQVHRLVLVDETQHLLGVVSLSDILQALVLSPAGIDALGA

Row | Compound | Emax [%] | EC50 [nM] | Assay GMean Asy. Max (%)
1 | CN1CCC(N2CC(Nc3ncc4c(c3F)[C@@](C)(c3cccc(Cl)c3F)CN(c3nn(C)cc3F)C4=O)C2)C1=O (single isomer, unassigned) [compound 69] | 81.6 | 29.2 | 
2 | CN1CCC(N2CC(Nc3ncc4c(c3F)[C@@](C)(c3cccc(Cl)c3F)CN(c3nn(C)cc3F)C4=O)C2)C1=O (single isomer, unassigned) [compound 70] |  | 47.6 | 80.4
3 | CN1CCCC(N2CC(Nc3ncc4c(c3F)[C@@](C)(c3cccc(Cl)c3F)CN(c3nn(C)cc3F)C4=O)C2)C1=O (single isomer, unassigned) [compound 71] | 139 | 19.8 | 
4 | CN1CCCC(N2CC(Nc3ncc4c(c3F)[C@@](C)(c3cccc(Cl)c3F)CN(c3nn(C)cc3F)C4=O)C2)C1=O (single isomer, unassigned) [compound 72] |  | 42.3 | 121
5 | CC1(c2cccc(Cl)c2F)CN(c2ccc3cncn3c2)C(=O)c2cnc(NC3CN(C(=O)[C@@H]4C[C@@H]4F)C3)nc21 (single isomer, unassigned) [compound 79] | 121 | 2830 | 
6 | CC1(c2cccc(Cl)c2F)CN(c2ncccc2F)C(=O)c2cnc(NC3CN(C(=O)[C@@H]4C[C@@H]4F)C3)nc21 (single isomer, unassigned) [compound 81] | 123 | > 1060 | 
7 | CC1(c2cccc(Cl)c2F)CN(c2ncccc2F)C(=O)c2cnc(NC3CN(C(=O)[C@@H]4CC45CCOCC5)C3)nc21 (single isomer, unassigned) [compound 82] | 218 | 107 | 
8 | COC[C@H](C)NC(=O)N1CC(Nc2ncc3c(n2)C(C)(c2cccc(Cl)c2F)CN(c2ncccc2F)C3=O)C1 (single isomer, unassigned) [compound 85] | 141 | 162 | 
9 | CC1(c2cccc(Cl)c2F)CN(c2ncccc2F)C(=O)c2cnc(NC3CN(C(=O)N4CCC[C@@H]4CO)C3)nc21 (single isomer, unassigned) [compound 86] | 106 | 34.6 | 
10 | CC1(c2cccc(Cl)c2F)CN(c2ncccc2F)C(=O)c2cnc(NC3CN(C(=O)N4C[C@@H]5C[C@H]4CO5)C3)nc21 (single isomer, unassigned) [compound 88] | 213 | 71.6 | 
11 | Cn1cc(F)c(N2C[C@](C)(c3cccc(Cl)c3F)c3c(cnc(NC4CN(C(=O)C5CCC(F)(F)CN5)C4)c3F)C2=O)n1 (single isomer, unassigned) [compound 95] | 78 | 125 | 
12 | Cn1cc(F)c(N2C[C@](C)(c3cccc(Cl)c3F)c3c(cnc(NC4CN(C(=O)C5CCC(F)(F)CN5)C4)c3F)C2=O)n1 (single isomer, unassigned) [compound 96] |  | 60.5 | 85.5
13 | Cn1cnc(N2C[C@](C)(c3cccc(Cl)c3F)c3c(cnc(NC4CN(C(=O)C5CC5C(F)(F)F)C4)c3F)C2=O)c1 (single isomer, unassigned) [compound 97] |  | 150 | 25.8
14 | Cn1cnc(N2C[C@](C)(c3cccc(Cl)c3F)c3c(cnc(NC4CN(C(=O)C5CC5C(F)(F)F)C4)c3F)C2=O)c1 (single isomer, unassigned) [compound 98] |  | 114 | 66.2
15 | CC1(c2ccc(F)c(Cl)c2F)CN(c2ccc(N)cn2)C(=O)c2cnc(NC3CN(C(=O)[C@@H]4C[C@@H]4F)C3)c(F)c21 (single isomer, unassigned) [compound 102] | 51.4 | 25.9 | 
16 | CC1(c2ccc(F)c(Cl)c2F)CN(c2ccc(CO)cn2)C(=O)c2cnc(NC3CN(C(=O)N4C[C@@H]5C[C@H]4CO5)C3)c(F)c21 (single isomer, unassigned) [compound 103] | 113 | 27.5 | 
17 | Cc1c(F)ccc(C2(C)CN(c3ccc(N)cn3)C(=O)c3cnc(NC4CN(C(=O)[C@@H]5C[C@@H]5F)C4)c(F)c32)c1F (single isomer, unassigned) [compound 104] | 49.8 | 32.1 | 
